Values after ≈ are worked out from the molar mass of the structure shown. Read-outs that look alike come from different tables or passages of the source.
How the values were obtained:
Format in all cases: cell-based
[1] = system: Haemophilus influenzae ATCC 49247; experiment: MIC, H. influenzae ATCC 49247; settings: ATCC49247, Table 4
[2] = system: Staphylococcus aureus ATCC 29213; experiment: MIC, broth microdilution, S. aureus ATCC 29213
[3] = system: Enterococcus faecium ATCC 19434; experiment: MIC, E. faecium ATCC 19434; settings: ATCC19434, Table 2
[4] = system: Escherichia coli ATCC 25922; experiment: MIC, broth microdilution, E. coli ATCC 25922; settings: ATCC25922, Table 1, wild type strain
[5] = ATCC29213, Table 1, wild type strain, read-out: MIC S. aureus ATCC 29213
[6] = ATCC 29213 / MSSA, Table 2, read-out: MIC S. aureus (MSSA) ATCC 29213 CLSI control strain

| MIC [1] | MIC [2, 5] | MIC [2, 6] | MIC [3] | MIC [4] | Compound |
| --- | --- | --- | --- | --- | --- |
| > 100 µg/mL | > 100 µg/mL | > 100 µg/mL | > 100 µg/mL | > 100 µg/mL | Cc1c(-c2ccc3[nH]nnc3c2)ccc2c3ocnc3c(=O)n(C3CC3)c12 [Compound 44, 7-(1H-1,2,3-benzotriazol-5-yl)-5-cyclopropyl-6-methyl-oxazolo[4,5-c]quinolin-4-one] |
| 10 to 100 µg/mL (≈ 26.8 to 268 µM) | 1 to 10 µg/mL (≈ 2.68 to 26.8 µM) | 1 to 10 µg/mL (≈ 2.68 to 26.8 µM) | 10 to 100 µg/mL (≈ 26.8 to 268 µM) | > 100 µg/mL | CCn1c(=O)c2ncoc2c2cc(F)c(-c3cc(F)c(N)cc3F)c(C)c21 [Compound 104, 7-(4-amino-2,5-difluoro-phenyl)-5-ethyl-8-fluoro-6-methyl-oxazolo[4,5-c]quinolin-4-one] |
| 10 to 100 µg/mL (≈ 25.7 to 257 µM) | 1 to 10 µg/mL (≈ 2.57 to 25.7 µM) | 1 to 10 µg/mL (≈ 2.57 to 25.7 µM) | > 100 µg/mL | > 100 µg/mL | Cc1c(-c2ccc(C(=O)O)cc2)ccc2c3oc(CN)nc3c(=O)n(C3CC3)c12 [Compound 102, 4-[2-(aminomethyl)-5-cyclopropyl-6-methyl-4-oxo-oxazolo[4,5-c]quinolin-7-yl]benzoic acid] |
| < 1 µg/mL | 1 to 10 µg/mL (≈ 2.76 to 27.6 µM) | 1 to 10 µg/mL (≈ 2.76 to 27.6 µM) | 10 to 100 µg/mL (≈ 27.6 to 276 µM) | 1 to 10 µg/mL (≈ 2.76 to 27.6 µM) | Cc1c(-c2cnc(N)nc2)ccc2c3oc(CN)nc3c(=O)n(C3CC3)c12 [Compound 103, 2-(aminomethyl)-7-(2-aminopyrimidin-5-yl)-5-cyclopropyl-6-methyl-oxazolo[4,5-c]quinolin-4-one] |
| 1 to 10 µg/mL (≈ 2.69 to 26.9 µM) | 10 to 100 µg/mL (≈ 26.9 to 269 µM) | 10 to 100 µg/mL (≈ 26.9 to 269 µM) | > 100 µg/mL | 10 to 100 µg/mL (≈ 26.9 to 269 µM) | Nc1cc(-c2nc3c(cc2F)c2ocnc2c(=O)n3C2CC2)c(F)cc1F [Compound 85, 7-(5-amino-2,4-difluorophenyl)-5-cyclopropyl-8-fluoro-oxazolo[4,5-c]1,8-naphthyridin-4-one] |
| 10 to 100 µg/mL (≈ 26.6 to 266 µM) | > 100 µg/mL | 10 to 100 µg/mL (≈ 26.6 to 266 µM) | > 100 µg/mL | > 100 µg/mL | Cc1nc2c(=O)n(C3CC3)c3nc(-c4ccc5[nH]ncc5c4)c(F)cc3c2o1 [Compound 87] |
| > 100 µg/mL | 10 to 100 µg/mL (≈ 28.1 to 281 µM) | 10 to 100 µg/mL (≈ 28.1 to 281 µM) | > 100 µg/mL | > 100 µg/mL | CCn1c(=O)c2ncoc2c2cc(F)c(-c3ccc(N)c(F)c3)c(C)c21 [Compound 107, 7-(4-amino-3-fluoro-phenyl)-5-ethyl-8-fluoro-6-methyl-oxazolo[4,5-c]quinolin-4-one] |
| > 100 µg/mL | 10 to 100 µg/mL (≈ 30 to 300 µM) | 10 to 100 µg/mL (≈ 30 to 300 µM) | > 100 µg/mL | > 100 µg/mL | Cc1c(-c2cnc(N)cn2)ccc2c3ocnc3c(=O)n(C3CC3)c12 [Compound 6, 7-(5-aminopyrazin-2-yl)-5-cyclopropyl-6-methyl-oxazolo[4,5-c]quinolin-4-one] |
| 10 to 100 µg/mL (≈ 28 to 280 µM) | 10 to 100 µg/mL (≈ 28 to 280 µM) | 10 to 100 µg/mL (≈ 28 to 280 µM) | > 100 µg/mL | 1 to 10 µg/mL (≈ 2.8 to 28 µM) | CN(C)C1CCN(c2nc3c(cc2F)c2ocnc2c(=O)n3C2CC2)C1 (stereo not shown) [Compound 83, 5-cyclopropyl-7-[3-(dimethylamino)pyrrolidin-1-yl]-8-fluoro-oxazolo[4,5-c][1,8]naphthyridin-4-one] |
| 10 to 100 µg/mL (≈ 25.9 to 259 µM) | > 100 µg/mL | 10 to 100 µg/mL (≈ 25.9 to 259 µM) | > 100 µg/mL | > 100 µg/mL | Cc1nc2c(=O)n(C3CC3)c3nc(-c4cc(F)c(N)cc4F)c(F)cc3c2o1 [Compound 86, 7-(4-amino-2,5-difluorophenyl)-5-cyclopropyl-8-fluoro-2-methyl-oxazolo[4,5-c]1,8-naphthyridin-4-one] |
| 1 to 10 µg/mL (≈ 2.57 to 25.7 µM) | 10 to 100 µg/mL (≈ 25.7 to 257 µM) | 10 to 100 µg/mL (≈ 25.7 to 257 µM) | > 100 µg/mL | > 100 µg/mL | O=c1c2ncoc2c2cc(F)c(-c3ccc(C(F)(F)F)nc3)cc2n1C1CC1 [Compound 60, 5-cyclopropyl-8-fluoro-7-[6-(trifluoromethyl)-3-pyridyl]oxazolo[4,5-c]quinolin-4-one] |
| 10 to 100 µg/mL (≈ 25.5 to 255 µM) | 1 to 10 µg/mL (≈ 2.55 to 25.5 µM) | 1 to 10 µg/mL (≈ 2.55 to 25.5 µM) | > 100 µg/mL | > 100 µg/mL | CN(C)C(=O)c1ccc(-c2cc3c(cc2F)c2ocnc2c(=O)n3C2CC2)cc1 [Compound 66, 4-(5-cyclopropyl-8-fluoro-4-oxo-oxazolo[4,5-c]quinolin-7-yl)-N,N-dimethyl-benzamide] |
| 10 to 100 µg/mL (≈ 29.3 to 293 µM) | 10 to 100 µg/mL (≈ 29.3 to 293 µM) | 10 to 100 µg/mL (≈ 29.3 to 293 µM) | > 100 µg/mL | 1 to 10 µg/mL (≈ 2.93 to 29.3 µM) | NC1C2CN(c3nc4c(cc3F)c3ocnc3c(=O)n4C3CC3)CC12 (stereo not shown) [Compound 82, 7-(6-amino-3-azabicyclo[3.1.0]hexan-3-yl)-5-cyclopropyl-8-fluoro-oxazolo[4,5-c][1,8]naphthyridin-4-one] |
| 1 to 10 µg/mL (≈ 2.62 to 26.2 µM) | < 1 µg/mL | < 1 µg/mL | 10 to 100 µg/mL (≈ 26.2 to 262 µM) | 1 to 10 µg/mL (≈ 2.62 to 26.2 µM) | Cc1nc2c(=O)n(C3CC3)c3c(C)c(-c4cc(F)c(O)cc4F)ccc3c2o1 [Compound 32, 5-cyclopropyl-7-(2,5-difluoro-4-hydroxy-phenyl)-2,6-dimethyl-oxazolo[4,5-c]quinolin-4-one] |
| 1 to 10 µg/mL (≈ 2.81 to 28.1 µM) | 1 to 10 µg/mL (≈ 2.81 to 28.1 µM) | 1 to 10 µg/mL (≈ 2.81 to 28.1 µM) | 10 to 100 µg/mL (≈ 28.1 to 281 µM) | 1 to 10 µg/mL (≈ 2.81 to 28.1 µM) | Cc1nc2c(=O)n(C3CC3)c3cc(N4CCCC(N)C4)c(F)cc3c2o1 (stereo not shown) [Compound 51, 7-(3-aminopiperidin-1-yl)-5-cyclopropyl-8-fluoro-2-methyl-oxazolo[4,5-c]quinolin-4-one] |
| 10 to 100 µg/mL (≈ 26.2 to 262 µM) | 1 to 10 µg/mL (≈ 2.62 to 26.2 µM) | 1 to 10 µg/mL (≈ 2.62 to 26.2 µM) | > 100 µg/mL | > 100 µg/mL | N#Cc1c(F)cc(-c2cc3c(cc2F)c2ocnc2c(=O)n3C2CC2)cc1F [Compound 65, 4-(5-cyclopropyl-8-fluoro-4-oxo-oxazolo[4,5-c]quinolin-7-yl)-2,6-difluoro-benzonitrile] |
| 1 to 10 µg/mL (≈ 2.69 to 26.9 µM) | 10 to 100 µg/mL (≈ 26.9 to 269 µM) | 10 to 100 µg/mL (≈ 26.9 to 269 µM) | > 100 µg/mL | 10 to 100 µg/mL (≈ 26.9 to 269 µM) | Cc1nc2c(=O)n3c4c(c(N5CCN(C)CC5)c(F)cc4c2o1)OC[C@@H]3C [Compound 91] |
| 10 to 100 µg/mL (≈ 26.8 to 268 µM) | 10 to 100 µg/mL (≈ 26.8 to 268 µM) | 10 to 100 µg/mL (≈ 26.8 to 268 µM) | 10 to 100 µg/mL (≈ 26.8 to 268 µM) | 10 to 100 µg/mL (≈ 26.8 to 268 µM) | CCn1c(=O)c2ncoc2c2cc(F)c(-c3cc(N)c(F)cc3F)c(C)c21 [Compound 105, 7-(5-amino-2,4-difluoro-phenyl)-5-ethyl-8-fluoro-6-methyl-oxazolo[4,5-c]quinolin-4-one] |
| 1 to 10 µg/mL (≈ 2.81 to 28.1 µM) | 1 to 10 µg/mL (≈ 2.81 to 28.1 µM) | 1 to 10 µg/mL (≈ 2.81 to 28.1 µM) | > 100 µg/mL | 10 to 100 µg/mL (≈ 28.1 to 281 µM) | O=c1c2ncoc2c2cc(F)c(-c3ccncc3Cl)cc2n1C1CC1 [Compound 59, 7-(3-chloro-4-pyridyl)-5-cyclopropyl-8-fluoro-oxazolo[4,5-c]quinolin-4-one] |
| 10 to 100 µg/mL (≈ 25.6 to 256 µM) | 10 to 100 µg/mL (≈ 25.6 to 256 µM) | 10 to 100 µg/mL (≈ 25.6 to 256 µM) | > 100 µg/mL | > 100 µg/mL | Cc1nc2c(=O)n(C3CC3)c3c(C)c(-c4cnc(C(C)(C)O)nc4)ccc3c2o1 [Compound 37, 5-cyclopropyl-7-[2-(2-hydroxypropan-2-yl)pyrimidin-5-yl]-2,6-dimethyl-oxazolo[4,5-c]quinolin-4-one] |
| 1 to 10 µg/mL (≈ 2.98 to 29.8 µM) | 1 to 10 µg/mL (≈ 2.98 to 29.8 µM) | 1 to 10 µg/mL (≈ 2.98 to 29.8 µM) | > 100 µg/mL | 10 to 100 µg/mL (≈ 29.8 to 298 µM) | Cc1nc2c(=O)n(C3CC3)c3cc(-c4ccncc4)c(F)cc3c2o1 [Compound 75, 5-cyclopropyl-8-fluoro-2-methyl-7-(4-pyridyl)oxazolo[4,5-c]quinolin-4-one] |
| 1 to 10 µg/mL (≈ 2.66 to 26.6 µM) | 1 to 10 µg/mL (≈ 2.66 to 26.6 µM) | > 100 µg/mL | > 100 µg/mL | 10 to 100 µg/mL (≈ 26.6 to 266 µM) | Cc1nc2c(=O)n(C3CC3)c3c(C)c(-c4cnn(C5CNC5)c4)ccc3c2o1 [Compound 12, 7-[1-(azetidin-3-yl)pyrazol-4-yl]-5-cyclopropyl-2,6-dimethyl-oxazolo[4,5-c]quinolin-4-one] |
| > 100 µg/mL | < 1 µg/mL | < 1 µg/mL | > 100 µg/mL | > 100 µg/mL | Cc1nc2c(=O)n(C3CC3)c3c(C)c(-c4ccc(N)c(F)c4)ccc3c2o1 [Compound 13] |
| 1 to 10 µg/mL (≈ 2.98 to 29.8 µM) | 1 to 10 µg/mL (≈ 2.98 to 29.8 µM) | 1 to 10 µg/mL (≈ 2.98 to 29.8 µM) | 10 to 100 µg/mL (≈ 29.8 to 298 µM) | 10 to 100 µg/mL (≈ 29.8 to 298 µM) | C[C@H]1COc2c(-c3cnc(N)nc3)ccc3c4ocnc4c(=O)n1c23 [Compound 94, (2S)-6-(2-aminopyrimidin-5-yl)-2-methyl-4,11-dioxa-1,13-diazatetracyclo[7.6.1.0^5,^16.0^10,^14]hexadeca-5(16),6,8,10(14),12-pentaen-15-one] |
| < 1 µg/mL | 1 to 10 µg/mL (≈ 2.44 to 24.4 µM) | 1 to 10 µg/mL (≈ 2.44 to 24.4 µM) | > 100 µg/mL | 1 to 10 µg/mL (≈ 2.44 to 24.4 µM) | Cc1nc2c(=O)n(C3CC3)c3c(C)c(-c4ccc(S(N)(=O)=O)cc4)ccc3c2o1 [Compound 17] |
| 10 to 100 µg/mL (≈ 25.3 to 253 µM) | 1 to 10 µg/mL (≈ 2.53 to 25.3 µM) | 1 to 10 µg/mL (≈ 2.53 to 25.3 µM) | > 100 µg/mL | > 100 µg/mL | CNC(=O)c1ccc(-c2cc3c(cc2F)c2ocnc2c(=O)n3C2CC2)cc1F [Compound 67, 4-(5-cyclopropyl-8-fluoro-4-oxo-oxazolo[4,5-c]quinolin-7-yl)-2-fluoro-N-methyl-benzamide] |
| > 100 µg/mL | > 100 µg/mL | > 100 µg/mL | > 100 µg/mL | > 100 µg/mL | COc1ccc(-c2cc3c(cc2F)c2ocnc2c(=O)n3C2CC2)cc1 [Compound 63, 5-cyclopropyl-8-fluoro-7-(4-methoxyphenyl)oxazolo[4,5-c]quinolin-4-one] |
| < 1 µg/mL | < 1 µg/mL | < 1 µg/mL | > 100 µg/mL | 1 to 10 µg/mL (≈ 2.59 to 25.9 µM) | O=c1c2ncoc2c2cc(F)c(-c3cc(F)c(CO)cc3F)cc2n1C1CC1 [Compound 68, 5-cyclopropyl-7-[2,5-difluoro-4-(hydroxymethyl)phenyl]-8-fluoro-oxazolo[4,5-c]quinolin-4-one] |
|  | < 1 µg/mL |  |  | < 1 µg/mL | Cc1nc2c(=O)n(C3CC3)c3c(Cl)c(N4CCC(CN)C4)c(F)cc3c2o1 (stereo not shown) [Compound 110, 7-[3-(aminomethyl)pyrrolidin-1-yl]-6-chloro-5-cyclopropyl-8-fluoro-2-methyl-oxazolo[4,5-c]quinolin-4-one] |
